According to patent US10501780B2, “Compositions for in situ nucleic acid analysis” (APPLIED BIOSYSTEMS, LLC, priority 2007, dated 2019):
*: point of attachment. MeOSuc = COC(=O)CCC(=O)*; CH2Cl = ClC*

Key:
proteinase K (PK) = proteinase K (PK) (Parengyodontium album, UniProt P06873); type: biochemical; settings: PK 600 ug/ml, increasing inhibitor, 3 min; RNaseALERT fluorescence at 520 nm
Protocol: PK (600 ug/ml) was mixed with increasing amounts of test inhibitor and allowed to react for 3 min at room temperature. RNase A was added and the mixture was incubated for 10 min. The RNase A was mixed with RNaseALERT™ substrate (AMBION®, Catalog No. AM1964) and incubated for 10 min. The fluorescence of the RNaseALERT™ substrate was measured at 520 nm.

DNase I [1] = settings: 1 mM EDTA in Buffer A; 0.2 U DNase I
Protocol: The 590 nm fluorescence intensity with 544 nm excitation was measured with time.

DNase I [2] = system: DNase I
Protocol: The ability of EGTA to inhibit DNase I activity and the limiting amount of EGTA that could be used in RT-PCR was determined. EGTA (88 mM; final conc. of 8 mM) was added to the stop solution for DNase I inactivation. The pH of the stop solution was 8.0 for AAPV (SEQ ID NO:1) inactivation of proteinase K. Tris-base with HCl as needed for pH adjustment (11 mM; final conc of 1 mM) was used for buffering the solution.

[3] = Compatibility of protease inhibitors with 1-step RT-PCR; settings: one-step reaction
[4] = Compatibility of protease inhibitors with two-step RT-PCR; type: biochemical
Excerpt: The samples were reverse transcribed using a Reverse Transcriptase Kit (Applied Biosystems Catalog No. 4368813) and the resulting cDNA was subjected to real time PCR with the TAQMAN® Universal PCR Master Mix (Applied Biosystems Catalog No. 4304437).

HeLa cells = experiment: Lysis efficacy of surfactants by propidium iodide staining; type: cell-based, H. sapiens; settings: PI staining, 10^5 HeLa cells; for effectiveness at lysing cells: concentrations up to 3%
Protocol: Lysis efficacies of seven surfactants were tested by PI staining (DNA fluorochrome propidium iodide stain for viability, 1 mg/ml) of 10^5 HeLa cells treated with 0.01% to 5% surfactant. The buffer was 10 mM Tris pH 7.5, 2.5 mM MgCl2, 0.5 mM CaCl2.

proteinase K = proteinase K (Parengyodontium album, UniProt P06873); experiment: AAPV concentration for proteinase K inhibition in lysis solution (RNase A, Bioanalyzer protein chip); type: biochemical; settings: PK 100 ug/ml
Protocol: For one-step RT-PCR, AAPV (SEQ ID NO:1) is effective. To determine the concentration of AAPV (SEQ ID NO:1) for inhibition of proteinase K in the lysis solution, 50 uL lysis solution was mixed with 5 uL of stop solution with varying amounts of AAPV (SEQ ID NO:1) (11 mM Tris, 44 mM EGTA, […] AAPV (SEQ ID NO:1)) and incubated for 10 min. RNase A (15 ug) was added to each sample and the samples were held for 10 min at room temperature. The reaction mixture was heated for 30 min at 95° C. and analyzed using a Protein 50 Bioanalyzer chip (2100 Bioanalyzer, Agilent, Santa Clara, Calif.). The Bioanalyzer protein gel data are provided by FIG. 7 in which the lower marker is at about 3.5 kDa; the next higher prominent bands are system peaks at about 4.0-4.5 kDa; intact RNase A is at about 20 kDa; and proteinase K is at about 35 kDa. Lanes are labeled as follows: (L) Ladder, (1) RNase Only, (2) PK Only, (3)-(8) AAPV (SEQ ID NO:1) at 1 mM (3), 0.75 mM (4), 0.5 mM (5), 0.25 mM (6), 0.125 mM (7), and 0 mM (8).

[5] = target: T1, AMPLITAQ GOLD® DNA polymerase (Thermus aquaticus, UniProt P19821); experiment: Effect of surfactants on qPCR (TAQMAN Universal PCR Master Mix, PPIA assay); type: biochemical; settings: even at 1% (0.1% final in PCR)
T1 construct: purchased Applied Biosystems 4304437
Protocol: The effects of surfactants on PCR reactions were then studied. qPCR (20 uL) reactions with 4 ng Human Universal reference liver cDNA (Catalog No. 780622; […]®, La Jolla, Calif.) were performed by adding 2 uL of surfactant resuspended in 10 mM Tris pH 7.5 at concentrations of 0.0%, 0.01%, 0.03%, 0.1%, 0.3%, and 1%. qPCR reactions were carried out using the TAQMAN® Universal PCR Master Mix (Applied Biosystems Catalog No. 4304437), and qRT-PCR reactions were carried out using the TAQMAN® One-Step RT-PCR Master Mix (Applied Biosystems Catalog No. 4309169). TAQMAN® gene expression assays were used to determine expressions levels of genes PPIA (peptidylprolyl isomerase A (cyclophilin A)) and B2M (β-2-microglobulin).
ROX™ background fluorescence was not affected.

[6] = concentrations up to 2 mM in the stopped mixture (up to 400 uM in an RT reaction)

Chain of proteinase K (PK) (P06873 106-384): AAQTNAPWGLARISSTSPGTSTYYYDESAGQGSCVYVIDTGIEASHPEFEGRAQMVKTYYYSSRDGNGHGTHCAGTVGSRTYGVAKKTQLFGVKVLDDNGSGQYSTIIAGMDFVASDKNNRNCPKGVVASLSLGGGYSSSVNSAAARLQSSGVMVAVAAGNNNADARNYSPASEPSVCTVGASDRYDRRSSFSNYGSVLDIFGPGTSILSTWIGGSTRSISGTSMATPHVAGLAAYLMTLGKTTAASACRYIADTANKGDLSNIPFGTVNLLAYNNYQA
Chain of proteinase K (P06873 106-384): as above
T1 sequence (P19821 whole entry): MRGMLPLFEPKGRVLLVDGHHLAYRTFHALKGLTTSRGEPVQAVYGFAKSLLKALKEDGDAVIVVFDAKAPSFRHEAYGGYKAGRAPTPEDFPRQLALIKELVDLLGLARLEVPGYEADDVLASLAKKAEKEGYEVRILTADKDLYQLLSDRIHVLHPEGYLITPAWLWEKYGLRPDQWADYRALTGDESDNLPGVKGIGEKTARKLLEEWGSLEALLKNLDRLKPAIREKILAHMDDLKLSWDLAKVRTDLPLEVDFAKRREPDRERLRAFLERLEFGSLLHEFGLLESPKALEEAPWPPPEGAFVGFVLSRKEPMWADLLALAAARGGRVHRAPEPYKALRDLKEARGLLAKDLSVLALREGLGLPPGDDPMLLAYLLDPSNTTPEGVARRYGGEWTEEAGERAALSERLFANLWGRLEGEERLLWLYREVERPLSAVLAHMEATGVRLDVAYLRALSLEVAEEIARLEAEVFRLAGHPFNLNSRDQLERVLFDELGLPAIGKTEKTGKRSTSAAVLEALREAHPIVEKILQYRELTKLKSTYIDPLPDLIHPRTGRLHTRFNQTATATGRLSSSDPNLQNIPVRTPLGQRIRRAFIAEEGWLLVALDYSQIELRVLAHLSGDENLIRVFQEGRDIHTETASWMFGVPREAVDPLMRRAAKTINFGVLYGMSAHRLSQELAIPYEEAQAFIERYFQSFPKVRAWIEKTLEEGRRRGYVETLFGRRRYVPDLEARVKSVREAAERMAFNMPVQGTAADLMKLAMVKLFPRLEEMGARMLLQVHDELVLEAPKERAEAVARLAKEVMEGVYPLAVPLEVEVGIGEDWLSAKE

Molecule: NCCc1ccc(S(=O)(=O)F)cc1 [AEBSF, 4-(2-aminoethyl) benzenesulfonyl fluoride]
- inhibition of PK at room temperature (proteinase K (PK)): did not show inhibition

Molecule: O=C(O)CN(CCN(CC(=O)O)CC(=O)O)CC(=O)O [EDTA, ethylenediamine tetraacetic acid]
- effect on DNase I activity (DNaseALERT substrate fluorescence) (DNase I [1]): inhibitory effect

Molecule: O=C(O)CN(CCOCCOCCN(CC(=O)O)CC(=O)O)CC(=O)O [EGTA, ethylene glycol tetraacetic acid]
- concentration inhibiting DNase I (DNase I [2]): ≥ 4 mM

Molecule: O=S(=O)(F)Cc1ccccc1 [PMSF, phenylmethylsulfonylfluoride]
- compatibility with 1-step RT-PCR [3]: showed RT-PCR inhibition
- RT-PCR inhibition (two-step) [4, 6]: Minimal RT-PCR inhibition

Molecule: N=C(N)c1ccccc1 [benzamidine]
- inhibition of PK at room temperature (proteinase K (PK)): did not show inhibition

Molecule: CC(=O)N[C@@H](CC(C)C)C(=O)N[C@@H](CC(C)C)C(=O)N[C@H](C=O)CCCNC(=N)N [leupeptin, Ac-Leu-Leu-Arg-CHO]
- inhibition of PK at room temperature (proteinase K (PK)): capable of inhibiting PK

Molecule: N-tosyl-L-lysine-chloromethyl ketone [TLCK]
- inhibition of PK at room temperature (proteinase K (PK)): did not show inhibition

Molecule: TWEEN™ 20
- effectiveness at lysing cells (HeLa cells): not effective

Molecule: TWEEN™ 40
- effectiveness at lysing cells (HeLa cells): not effective

Molecule: TWEEN™ 80
- effectiveness at lysing cells (HeLa cells): not effective

Molecule: aprotinin
- compatibility with 1-step RT-PCR [3]: showed RT-PCR inhibition
- RT-PCR inhibition (two-step) ([4]; all concentrations tested): inhibitory
- inhibition of PK at room temperature (proteinase K (PK)): capable of inhibiting PK

Molecule: methoxysuccinyl-Ala-Ala-Pro-Ala-chloromethyl ketone (MeOSuc-AAPA-CH2Cl)
- inhibition of PK at room temperature (proteinase K (PK)): did not show inhibition

Molecule: methoxysuccinyl-Ala-Ala-Pro-Val-chloromethyl ketone (MeOSuc-AAPV-CH2Cl)
- compatibility with 1-step RT-PCR [3]: compatible
- RT-PCR inhibition (two-step) [4, 6]: Minimal RT-PCR inhibition
- lowest concentration inhibiting PK (proteinase K): ≥ 0.25 mM
- lowest concentration inhibiting PK (proteinase K; listed as Methoxysuccinyl-AAPV-chloromethyl ketone): ≥ 0.75 mM
- inhibition of PK at room temperature (proteinase K (PK)): capable of inhibiting PK

Molecule: octylphenol ethoxylate having an average of 7.5 ethoxylate groups [TRITON X-114™]
- effect on qPCR (Ct) [5]: no effect

Molecule: octylphenol ethoxylate having an average of 9.5 ethoxylate groups [TRITON X-100™]
- concentrations effective for lysis (HeLa cells; 0.01% to 5% surfactant tested, 1% TRITON X-100 as full lysis control): ≥ 0.05%

B1: N-acetyl-Eglin C: Catalog No. E7888, Sigma-Aldrich; inhibitor of chymotrypsin, subtilisin, leukocyte elastase and cathepsin G (protein)
chain: Ac-TEFGSELKSFPEVVGKTVDQAREYFTLHYPQYDVYFLPEGSPVTLDLRYNRVRVFYNPGTNVVNHVPHVG
- inhibition of PK at room temperature (proteinase K (PK)): did not show inhibition
